The values that follow come from US10398717B2, “Pharmaceutical composition based on a hepatoprotector and prebiotic, and method for administrating” (priority 2008, dated 2019).

The subject of series [1] is Sprague-Dawley rats. Briefly: High-fat diet induced non-alcoholic hepatitis model. Type of series: in vivo. The conditions noted are these: liver histology, day 121; oral administration during 90 days. On the procedure:
The control group (Group 4, n=14 in each group) was administered an equal amount of 1% methyl cellulose suspension. The animals were monitored for 120 days on the background of continuous pathology induction. Administration of drugs began after 30 days from the beginning of diet supplementation (10 % lard and 2% cholesterol for each 100 g feed). The effect of therapy was assessed by biochemical parameters (ALT, AST, triglycerides) and liver histology. On day 121, animals were euthanized and liver histology was performed. In the control group, […] of animals developed steatosis.

Series [2] has as its system patients with diffuse liver diseases (cirrhosis, hepatitis) with intrhepatic cholestasis syndrome. The conditions noted are these: human, in vivo; cited from earlier work.
In series [3] the test system is colon contents. The conditions noted are these: in vivo; cited from earlier work.
For series [4] the following is noted: cited from earlier work.

As for `C[C@H](CCC(=O)O)[C@H]1CC[C@H]2[C@@H]3[C@@H](O)C[C@@H]4C[C@H](O)CC[C@]4(C)[C@H]3CC[C@]12C` [Group 3, ursodeoxycholic acid], the “rats in which signs of steatosis, ballooning, and inflammation improved” value in series [1] is recorded as 50%.
`C[S+](CC[C@H](N)C(=O)[O-])C[C@H]1O[C@@H](n2cnc3c(N)ncnc32)[C@H](O)[C@@H]1O` (stereo partly drawn) [ademethionine, S-adenosil-L-metionine]: in series [2], the “duration of antiasthenic, anticholestatic and hepatoprotective effects after the treatment was stopped” value was 3 months; the “patients with decrease of intensity of asthenic syndrome” value is given as 46%; the “patients with disappearance of asthenic syndrome” value is listed as 54%.
Consider `OC[C@H]1O[C@@H](O[C@@H]2[C@@H](CO)O[C@](O)(CO)[C@H]2O)[C@H](O)[C@@H](O)[C@H]1O` [lactulose, 4-0-D-galactopyranosyl-D-fructose], for which, in series [3], the “increase of volume of colon contents” value is given as “about 30%”. The solubility in water result in series [4] is reported as “very soluble in water”.
